Calls of active or inactive are those of the source.

The target in experiment [1] is Serine/threonine-protein kinase PLK4 (Homo sapiens, UniProt O00444). The class given is functional.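 Also: PLK4 measured as one member of a kinome-wide kinase profiling panel.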
The target of experiment [2] is Tyrosine-protein kinase Fer (Homo sapiens, UniProt P16591). The class given is functional.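 Also: FER tested as one member of a kinome panel.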
The target of another experiment is Aurora kinase A (Homo sapiens, UniProt O14965). The class given is functional.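 Also: value from the Navigating the Kinome kinase panel profiling, panel entry STK6.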
Aurora kinase A, sequence (O14965 whole entry): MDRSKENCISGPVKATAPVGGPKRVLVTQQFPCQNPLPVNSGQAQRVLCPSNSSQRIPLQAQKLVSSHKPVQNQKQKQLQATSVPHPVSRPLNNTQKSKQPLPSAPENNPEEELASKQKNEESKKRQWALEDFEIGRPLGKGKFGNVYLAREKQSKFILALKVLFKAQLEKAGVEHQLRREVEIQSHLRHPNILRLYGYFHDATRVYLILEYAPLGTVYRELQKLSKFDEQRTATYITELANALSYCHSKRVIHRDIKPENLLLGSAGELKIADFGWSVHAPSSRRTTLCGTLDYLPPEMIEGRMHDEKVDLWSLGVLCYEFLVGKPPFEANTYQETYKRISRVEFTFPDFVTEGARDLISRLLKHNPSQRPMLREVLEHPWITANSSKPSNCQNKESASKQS
The target of experiment [3] is Tyrosine-protein kinase ITK/TSK (Homo sapiens, UniProt Q08881). Type of experiment: functional.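 Also: affinity for ITK measured as one member of a broad kinase panel profiling binding across the kinome.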
Tyrosine-protein kinase ITK/TSK, sequence (Q08881 whole entry): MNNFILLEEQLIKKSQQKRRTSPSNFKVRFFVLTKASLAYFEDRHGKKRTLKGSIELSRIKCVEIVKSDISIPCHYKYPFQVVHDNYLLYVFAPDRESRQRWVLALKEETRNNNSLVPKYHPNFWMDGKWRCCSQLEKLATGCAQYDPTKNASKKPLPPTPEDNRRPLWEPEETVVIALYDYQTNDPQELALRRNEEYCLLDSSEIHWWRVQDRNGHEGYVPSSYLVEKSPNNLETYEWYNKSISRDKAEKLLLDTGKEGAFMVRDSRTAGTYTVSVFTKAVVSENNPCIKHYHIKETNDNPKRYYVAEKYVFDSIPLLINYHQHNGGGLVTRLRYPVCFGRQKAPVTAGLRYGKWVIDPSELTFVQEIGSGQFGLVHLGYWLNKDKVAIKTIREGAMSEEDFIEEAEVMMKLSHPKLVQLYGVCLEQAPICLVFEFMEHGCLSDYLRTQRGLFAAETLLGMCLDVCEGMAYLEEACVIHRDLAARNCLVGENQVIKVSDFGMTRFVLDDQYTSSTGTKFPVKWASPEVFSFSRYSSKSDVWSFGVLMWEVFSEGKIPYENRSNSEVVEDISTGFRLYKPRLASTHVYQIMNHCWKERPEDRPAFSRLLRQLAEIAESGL
Experiment [4] addresses Hepatocyte growth factor receptor (Homo sapiens, UniProt P08581). Type of experiment: functional.
The target of experiment [5] is Lymphokine-activated killer T-cell-originated protein kinase (Homo sapiens, UniProt Q96KB5). Type of experiment: functional.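 Also: value comes from a kinase panel screen in which TOPK was one of the panel members.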
Experiment [6] addresses Vascular endothelial growth factor receptor 1 (Homo sapiens, UniProt P17948). Type of experiment: functional.
The target in experiment [7] is Interleukin-1 receptor-associated kinase 1 (Homo sapiens, UniProt P51617). The class given is functional.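 Also: IRAK1 tested as one member of a kinome panel.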
Interleukin-1 receptor-associated kinase 1, sequence (P51617 whole entry): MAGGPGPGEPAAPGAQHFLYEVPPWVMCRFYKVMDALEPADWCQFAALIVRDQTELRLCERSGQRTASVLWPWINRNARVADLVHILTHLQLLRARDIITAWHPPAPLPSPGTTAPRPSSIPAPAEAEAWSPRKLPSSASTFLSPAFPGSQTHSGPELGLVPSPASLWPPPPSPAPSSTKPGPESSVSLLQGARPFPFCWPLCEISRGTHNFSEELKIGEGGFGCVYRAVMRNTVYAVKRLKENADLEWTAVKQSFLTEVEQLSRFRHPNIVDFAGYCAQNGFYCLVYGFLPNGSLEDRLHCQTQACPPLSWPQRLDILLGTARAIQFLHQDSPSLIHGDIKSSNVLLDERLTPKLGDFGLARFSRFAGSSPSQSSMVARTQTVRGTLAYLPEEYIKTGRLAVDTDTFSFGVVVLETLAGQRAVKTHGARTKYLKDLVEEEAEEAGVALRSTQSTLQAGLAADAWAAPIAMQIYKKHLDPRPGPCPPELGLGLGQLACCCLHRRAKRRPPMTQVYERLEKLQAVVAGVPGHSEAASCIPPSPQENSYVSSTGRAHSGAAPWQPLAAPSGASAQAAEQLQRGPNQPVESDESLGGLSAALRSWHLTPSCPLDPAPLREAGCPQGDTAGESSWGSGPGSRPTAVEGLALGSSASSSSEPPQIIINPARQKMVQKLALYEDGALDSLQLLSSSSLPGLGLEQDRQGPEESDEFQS
Experiment [8] has as its target Mast/stem cell growth factor receptor Kit (Homo sapiens, UniProt P10721). Type of experiment: functional.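 Also: KIT entry within a kinase panel assay.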
The target of experiment [9] is Serine/threonine-protein kinase DCLK1 (Homo sapiens, UniProt O15075). Type of experiment: functional.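 Also: affinity for DCLK1 (listed as DCAMKL1) measured as one member of a kinome-wide kinase profiling panel.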
The target in experiment [10] is Serine/threonine-protein kinase MRCK alpha (Homo sapiens, UniProt Q5VT25). The class given is functional.
The nature of experiment [11]: Counterscreen for activators of the function of SWI/SNF related, matrix associated, actin dependent regulator of chromatin, subfamily a, member 2 (SMARCA2, BRM): Luminescence-based cell-based high throughput dose response assay to identify non-selective compounds using the VP16 reporter assay. The class given is functional.
A further experiment has as its target T1, Hexokinase (Trypanosoma brucei, UniProt Q38C41).
T1 sequence (Q38C41 whole entry): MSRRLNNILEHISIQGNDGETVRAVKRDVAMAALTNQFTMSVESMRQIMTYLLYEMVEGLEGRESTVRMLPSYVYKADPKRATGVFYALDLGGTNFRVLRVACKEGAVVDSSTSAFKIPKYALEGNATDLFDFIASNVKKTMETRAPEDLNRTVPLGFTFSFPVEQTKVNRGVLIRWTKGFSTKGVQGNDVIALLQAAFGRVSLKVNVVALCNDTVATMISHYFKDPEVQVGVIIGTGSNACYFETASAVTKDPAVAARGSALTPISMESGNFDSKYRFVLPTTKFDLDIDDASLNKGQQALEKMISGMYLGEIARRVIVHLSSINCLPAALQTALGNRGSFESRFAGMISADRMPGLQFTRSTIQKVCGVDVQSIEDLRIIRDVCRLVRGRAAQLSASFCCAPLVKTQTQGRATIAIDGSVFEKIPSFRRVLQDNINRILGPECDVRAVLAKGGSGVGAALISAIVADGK
The experiment in a line: Confirmation assay for inhibitors of Trypanosoma brucei hexokinase 1-Analogue-first series. [Related pubchem assays (depositor defined):AID1430, AID1632, AID2516, AID2560, AID2579, AID2600, AID449725, AID492951]. The class given is functional.

The nature of experiment [12]: growth suppression of beta-catenin-knockout colon cells, dose response, cell-based, HCT116, human colon tumor (AID 1045).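 Also: HCT116 colon tumor cells with beta catenin knocked out; cells exposed to compound for 60 hours.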 The class given is functional.
Experiment [13] concerns the target Induced myeloid leukemia cell differentiation protein Mcl-1 (Homo sapiens, UniProt Q07820). The class given is functional.
Experiment [14] deals with DNA (cytosine-5)-methyltransferase 1 (Homo sapiens, UniProt P26358). The experiment in a line: DNMT1 methyltransferase inhibitors, confirmation, biochemical, fluorescent molecular beacon (AID 602386). Type of experiment: functional.
DNA (cytosine-5)-methyltransferase 1, sequence (P26358 whole entry): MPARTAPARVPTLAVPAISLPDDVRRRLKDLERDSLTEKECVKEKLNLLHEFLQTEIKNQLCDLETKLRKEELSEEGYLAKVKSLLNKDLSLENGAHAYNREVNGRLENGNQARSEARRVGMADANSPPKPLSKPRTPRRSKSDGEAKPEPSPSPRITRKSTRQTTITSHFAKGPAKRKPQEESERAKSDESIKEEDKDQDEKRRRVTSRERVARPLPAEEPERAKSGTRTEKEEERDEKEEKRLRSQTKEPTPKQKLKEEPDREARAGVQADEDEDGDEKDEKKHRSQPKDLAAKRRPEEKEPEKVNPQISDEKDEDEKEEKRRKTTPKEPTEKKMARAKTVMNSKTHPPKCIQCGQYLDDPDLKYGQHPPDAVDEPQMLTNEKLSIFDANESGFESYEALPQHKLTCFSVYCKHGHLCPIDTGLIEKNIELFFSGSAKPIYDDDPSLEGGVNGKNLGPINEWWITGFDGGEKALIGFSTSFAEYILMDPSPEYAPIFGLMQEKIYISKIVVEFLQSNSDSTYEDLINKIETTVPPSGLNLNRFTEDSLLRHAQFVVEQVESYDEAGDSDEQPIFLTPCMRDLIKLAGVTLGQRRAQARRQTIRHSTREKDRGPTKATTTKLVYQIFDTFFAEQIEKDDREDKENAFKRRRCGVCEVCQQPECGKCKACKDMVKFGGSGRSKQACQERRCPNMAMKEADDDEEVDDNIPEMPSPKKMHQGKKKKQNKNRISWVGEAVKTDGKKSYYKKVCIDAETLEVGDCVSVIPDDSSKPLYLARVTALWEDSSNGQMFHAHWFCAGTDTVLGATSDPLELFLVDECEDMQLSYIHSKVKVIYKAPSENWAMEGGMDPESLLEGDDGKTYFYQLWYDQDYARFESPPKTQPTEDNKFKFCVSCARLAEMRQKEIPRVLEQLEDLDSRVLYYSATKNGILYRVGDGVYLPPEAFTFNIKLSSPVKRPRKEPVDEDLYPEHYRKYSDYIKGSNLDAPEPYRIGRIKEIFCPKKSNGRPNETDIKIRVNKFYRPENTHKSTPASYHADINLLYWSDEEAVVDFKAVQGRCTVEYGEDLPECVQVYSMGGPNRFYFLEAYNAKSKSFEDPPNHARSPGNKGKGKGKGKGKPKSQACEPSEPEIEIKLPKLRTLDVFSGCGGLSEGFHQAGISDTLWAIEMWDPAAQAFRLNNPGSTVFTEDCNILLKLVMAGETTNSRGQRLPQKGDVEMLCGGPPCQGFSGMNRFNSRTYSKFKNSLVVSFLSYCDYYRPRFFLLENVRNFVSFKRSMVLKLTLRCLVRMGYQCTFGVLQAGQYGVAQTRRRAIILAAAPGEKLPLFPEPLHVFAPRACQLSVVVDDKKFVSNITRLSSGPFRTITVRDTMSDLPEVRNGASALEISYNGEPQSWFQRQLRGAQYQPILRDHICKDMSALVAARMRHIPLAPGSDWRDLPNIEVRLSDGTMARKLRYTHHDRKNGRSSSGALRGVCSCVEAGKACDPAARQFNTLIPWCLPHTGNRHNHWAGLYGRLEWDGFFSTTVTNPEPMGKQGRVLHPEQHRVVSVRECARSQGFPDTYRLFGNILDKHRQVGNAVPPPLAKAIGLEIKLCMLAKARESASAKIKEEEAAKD
Experiment [15] addresses T2, Apoptotic protease-activating factor 1 (Homo sapiens, UniProt O14727).
T2 sequence (O14727 whole entry): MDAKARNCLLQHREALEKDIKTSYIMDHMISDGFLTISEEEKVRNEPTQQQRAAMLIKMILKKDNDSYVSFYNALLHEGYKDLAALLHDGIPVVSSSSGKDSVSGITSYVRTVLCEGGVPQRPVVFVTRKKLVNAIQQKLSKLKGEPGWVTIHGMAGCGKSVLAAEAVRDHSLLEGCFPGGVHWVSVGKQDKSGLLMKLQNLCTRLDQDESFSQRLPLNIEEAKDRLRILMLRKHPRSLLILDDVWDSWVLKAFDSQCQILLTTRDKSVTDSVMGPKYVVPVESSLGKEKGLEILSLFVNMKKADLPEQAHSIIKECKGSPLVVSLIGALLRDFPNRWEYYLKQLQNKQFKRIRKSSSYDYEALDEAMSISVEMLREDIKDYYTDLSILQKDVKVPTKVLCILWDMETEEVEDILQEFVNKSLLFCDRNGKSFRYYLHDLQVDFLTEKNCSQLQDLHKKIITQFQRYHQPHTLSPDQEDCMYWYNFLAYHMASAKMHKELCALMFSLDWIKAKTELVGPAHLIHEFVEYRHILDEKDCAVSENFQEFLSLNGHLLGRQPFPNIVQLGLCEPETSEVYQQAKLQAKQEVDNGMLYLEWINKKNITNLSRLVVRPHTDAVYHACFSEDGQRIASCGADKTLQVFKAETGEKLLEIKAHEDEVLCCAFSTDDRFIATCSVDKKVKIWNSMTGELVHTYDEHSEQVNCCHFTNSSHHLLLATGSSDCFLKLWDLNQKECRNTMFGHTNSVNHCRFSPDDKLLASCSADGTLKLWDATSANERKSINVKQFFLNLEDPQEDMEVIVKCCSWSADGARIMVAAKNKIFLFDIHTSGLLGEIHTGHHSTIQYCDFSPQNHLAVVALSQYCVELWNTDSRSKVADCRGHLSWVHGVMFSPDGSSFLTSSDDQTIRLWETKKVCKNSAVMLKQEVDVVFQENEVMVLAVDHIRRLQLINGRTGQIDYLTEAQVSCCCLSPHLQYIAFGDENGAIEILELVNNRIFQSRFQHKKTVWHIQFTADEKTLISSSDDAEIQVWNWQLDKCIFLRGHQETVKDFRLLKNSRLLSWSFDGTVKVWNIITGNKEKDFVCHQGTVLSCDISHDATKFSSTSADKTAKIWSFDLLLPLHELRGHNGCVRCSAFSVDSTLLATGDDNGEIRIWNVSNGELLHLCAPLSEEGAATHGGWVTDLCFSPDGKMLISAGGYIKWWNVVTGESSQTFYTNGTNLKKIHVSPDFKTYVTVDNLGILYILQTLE
The class given is functional.

Experiment [16] has as its target Serine/threonine-protein phosphatase (Candida dubliniensis (strain CD36 / CBS 7987 / NCPF 3949 / NRRLY-17841) (Yeast), UniProt B9W6M3). The experiment in a line: calcineurin pathway inhibitors in yeast reporter, dose response, S. cerevisiae, CDRE-lacZ, luminescence, secondary (AID 2388).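 Also: yeast reporter cells carrying a calcineurin-responsive lacZ construct stimulated with calcium chloride; luminescent beta-galactosidase reporter signal in whole cells rather than isolated phosphatase activity; potency for inhibition where a drop in reporter signal means calcineurin blockade.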 The class given is functional, cell-based.

Serine/threonine-protein phosphatase, sequence (B9W6M3 whole entry): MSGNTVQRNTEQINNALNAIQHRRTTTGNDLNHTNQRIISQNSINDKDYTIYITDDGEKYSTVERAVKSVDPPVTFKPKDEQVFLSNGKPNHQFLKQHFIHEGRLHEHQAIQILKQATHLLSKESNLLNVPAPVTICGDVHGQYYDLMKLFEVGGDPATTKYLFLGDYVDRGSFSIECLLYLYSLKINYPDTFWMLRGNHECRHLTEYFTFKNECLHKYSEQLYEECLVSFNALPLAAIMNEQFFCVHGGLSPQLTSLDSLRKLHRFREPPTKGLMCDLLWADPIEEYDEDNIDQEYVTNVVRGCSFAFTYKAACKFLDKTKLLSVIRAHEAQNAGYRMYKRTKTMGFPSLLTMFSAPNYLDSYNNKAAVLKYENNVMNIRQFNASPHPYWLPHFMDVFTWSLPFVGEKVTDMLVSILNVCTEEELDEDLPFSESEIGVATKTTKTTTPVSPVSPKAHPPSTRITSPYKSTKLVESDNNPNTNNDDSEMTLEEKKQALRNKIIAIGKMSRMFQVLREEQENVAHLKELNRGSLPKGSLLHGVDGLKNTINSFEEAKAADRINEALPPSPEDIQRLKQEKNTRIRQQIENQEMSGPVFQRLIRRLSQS
Mast/stem cell growth factor receptor Kit, sequence (P10721 whole entry): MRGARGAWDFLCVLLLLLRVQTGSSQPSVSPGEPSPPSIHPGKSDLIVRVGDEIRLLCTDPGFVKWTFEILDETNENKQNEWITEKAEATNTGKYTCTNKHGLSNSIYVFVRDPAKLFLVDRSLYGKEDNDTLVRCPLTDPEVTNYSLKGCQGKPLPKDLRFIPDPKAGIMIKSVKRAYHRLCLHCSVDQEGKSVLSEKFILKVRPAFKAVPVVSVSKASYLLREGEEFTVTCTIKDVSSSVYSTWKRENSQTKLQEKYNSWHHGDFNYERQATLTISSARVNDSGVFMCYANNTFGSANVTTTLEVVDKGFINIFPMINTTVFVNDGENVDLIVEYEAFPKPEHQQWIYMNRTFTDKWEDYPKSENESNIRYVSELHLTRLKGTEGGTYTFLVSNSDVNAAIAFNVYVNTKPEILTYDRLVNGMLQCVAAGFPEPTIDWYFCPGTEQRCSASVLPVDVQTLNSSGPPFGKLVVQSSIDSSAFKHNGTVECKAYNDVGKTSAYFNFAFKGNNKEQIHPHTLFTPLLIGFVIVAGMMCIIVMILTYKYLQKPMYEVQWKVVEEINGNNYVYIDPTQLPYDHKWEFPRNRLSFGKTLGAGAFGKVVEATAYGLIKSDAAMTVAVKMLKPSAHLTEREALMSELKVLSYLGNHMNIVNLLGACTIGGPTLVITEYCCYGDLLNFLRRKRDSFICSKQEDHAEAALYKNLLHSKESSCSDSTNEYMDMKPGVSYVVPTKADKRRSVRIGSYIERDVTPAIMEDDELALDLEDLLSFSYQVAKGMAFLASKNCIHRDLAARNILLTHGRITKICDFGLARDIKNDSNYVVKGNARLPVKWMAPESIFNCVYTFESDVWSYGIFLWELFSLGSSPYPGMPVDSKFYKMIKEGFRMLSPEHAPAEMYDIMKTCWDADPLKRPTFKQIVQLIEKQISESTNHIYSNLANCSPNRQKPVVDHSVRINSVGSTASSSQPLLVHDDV

For `Cc1cccc(NC(=O)Nc2ccc3c(c2)CCc2sc4ncnc(N)c4c2-3)c1`, the Ki in [1] is 0.251 µM (active); in experiment [2], > 1.58 µM (inactive); on Aurora kinase A, 0.0794 µM (active); in experiment [3], > 1.58 µM (inactive); in [4] it was > 3.16 µM (inactive); in experiment [5] it was 3.16 µM (active). The Ki was 0.00631 µM (active) in experiment [6]; > 7.94 µM (inactive) in [7]; > 1.26 µM (inactive) in experiment [8]; > 10 µM (inactive) in [9]; > 10 µM (inactive) in experiment [10].

Take `Cc1ccc(-n2sc3ccccc3c2=O)cc1`: the figures for the EC50 in [11] and in experiment [12] were 51.5 µM (inactive) and 24.4 µM (active), respectively. For the same compound, at Hexokinase, the IC50 is 2.64 µM (active).

Take `N/C(=N\N=C/c1ccc(-c2ccc(O)c(C(=O)O)c2)o1)N[N+](=O)[O-]`: the IC50 in [13] is 3.86 µM (active); in experiment [14], 3.94 µM (active).

`CC(=O)N(/N=C1\Sc2ccccc2C1=O)c1ccccc1C`: the half-inhibitory concentration (IC50) in [15] was 5.13 µM (active).

Turning to `CCCC(=O)NC(c1ccc(Cl)cc1)c1ccc2cccnc2c1O` (stereo not drawn), the 50% effective concentration (EC50) in [16] was 45.4 µM (active).

Values taken from ChEMBL document CHEMBL1201862, “PubChem BioAssay data set” (2004).
